From PMC11140455 (RSC Advances, 2024)
Values joined by “and” are separate entries in the source; they are usually repeats but may differ in a detail not shown here. Equal entries are not always repeated. Where two headings read alike, the source gives them in different places.

Experiments:
[1] = system: H2228 EML4-ALK cancer cell line; assay: Antiproliferative activity, MTT assay, H2228 monolayer; format: cell-based, human; conditions: read-out: H2228 IC50 EML4-ALK
[2] = system: BaF3/NMP-ALK cancer cell line; assay: Antiproliferative activity, CCK-8 assay, BaF3/ALK cells; format: cell-based, mouse; conditions: read-out: BaF3/NMP-ALK IC50
H2228 xenograft = assay: In vivo anti-tumor evaluation, H2228 xenograft in nude mice; conditions: 20 mg kg^-1, oral, 14 days
EA.hy926 cells = assay: Toxicity assay on human normal cells, EA.hy926; format: cell-based; conditions: for IC50: Homo sapiens
L02 cells = assay: Toxicity assay on human normal cells, L02; format: cell-based; conditions: L02, read-out: IC50 L02
HK-2 cells = assay: Toxicity assay on human normal cells, HK-2; format: cell-based
[3] = MTT, 48 h, mean ± SD, at least three experiments
[4] = CCK-8, 48 h, at least three experiments

Molecule | IC50 [1, 3] | IC50 [2, 4] | other results
4-Chloro-N2-(2-ethoxy-5-methyl-4-(1-methylpiperidin-4-yl)phenyl)-N5-(2-(ethylsulfinyl)-4-fluorophenyl)pyrimidine-2,5-diamine [Compound 18g] | 33 ± 7 nM | 29 ± 12 nM | 
4-Chloro-N5-(2-(ethylsulfinyl)-4-fluorophenyl)-N2-(2-isopropoxy-5-methyl-4-(1-methylpiperidin-4-yl)phenyl)pyrimidine-2,5-diamine [Compound 18L] | 31 ± 10 nM | 28 ± 8 nM | 
4-Chloro-N5-(2-(ethylsulfinyl)-4-fluorophenyl)-N2-(2-isopropoxy-5-methyl-4-(piperidin-4-yl)phenyl)pyrimidine-2,5-diamine [Compound 18j] | 63 ± 8 nM | 56 ± 4 nM | 
4-Chloro-N5-(2-(ethylsulfinyl)-4-fluorophenyl)-N2-(2-methoxy-5-methyl-4-(1-methylpiperidin-4-yl)phenyl)pyrimidine-2,5-diamine [Compound 18f] | 37 ± 11 nM | 31 ± 13 nM | 
4-Chloro-N5-(2-(ethylsulfinyl)-4-fluorophenyl)-N2-(2-methoxy-5-methyl-4-(piperidin-4-yl)phenyl)pyrimidine-2,5-diamine [Compound 18h] | 58 ± 16 nM | 47 ± 15 nM | 
4-Chloro-N5-(2-(ethylsulfinyl)phenyl)-N2-(2-methoxy-4-(1-methylpiperidin-4-yl)phenyl)pyrimidine-2,5-diamine [Compound 18k] | 57 ± 6 nM | 24 ± 5 nM | 
4-Chloro-N5-(2-(ethylsulfinyl)phenyl)-N2-(2-methoxy-5-methyl-4-(1-methylpiperidin-4-yl)phenyl)pyrimidine-2,5-diamine [Compound 18e] | 44 ± 12 nM | 33 ± 10 nM | 
4-Chloro-N5-(4-chloro-2-(ethylsulfinyl)phenyl)-N2-(2-isopropoxy-5-methyl-4-(1-methylpiperidin-4-yl)phenyl)pyrimidine-2,5-diamine [Compound 18i] | 81 ± 28 nM | 77 ± 15 nM | 
Cc1cc(Nc2ncc(Cl)c(Nc3ccccc3S(=O)(=O)C(C)C)n2)c(OC(C)C)cc1C1CCNCC1 [Ceritinib, ceritinib] |  |  | IC50 ([1]; Homo sapiens, NCI-H2228, 48 h): 25 ± 10 nM; Tumor growth inhibitory rate (TGI) (H2228 xenograft): 72.8% and 72.0%; Tumor volume changes (inhibitory effects) (H2228 xenograft): 131.00 mm^3; EA.hy926 cell morphology (EA.hy926 cells; 48 h, 1 μM (Fig. 9)): abnormal morphology changes; IC50 (EA.hy926 cells; EA.hy 926, read-out: IC50 EA.hy926 (active)): 3420 ± 560 nM; IC50 (EA.hy926 cells; EA.hy 926, read-out: IC50 EA.hy926 (quiescent)): 2440 ± 340 nM; IC50 (L02 cells): 3420 ± 560 nM; HK-2 cell morphology (HK-2 cells; 48 h, 1 μM (Fig. 9)): abnormal morphology changes; IC50 (HK-2 cells; Homo sapiens, HK-2, read-out: IC50 HK-2): 1440 ± 250 nM; IC50 ([2]; Mus musculus, BaF3, 48 h): 18 ± 1 nM
